Experimental data as given in ChEMBL document CHEMBL1201862, “PubChem BioAssay data set” (2004).
Active and inactive are the calls of the source.

Tests used:
[1] = Trypanosoma cruzi growth suppression in host cells – NIH3T3 host cells, beta-gal luminescence, confirmation (AID 2044); type: functional, cell-based;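 further: intracellular parasites grown in NIH/3T3 mouse fibroblasts as host cells; luminescent beta-galactosidase reporter signal from transgenic T. cruzi replicating inside host cells; inhibitors lower the luminescence signal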
[2] = NIH3T3 cell viability loss – ATP luminescence, mouse fibroblasts, counter-screen, dose response (AID 2010); type: functional, cell-based;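 further: cells exposed to compound for about 90 hours before reading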
[3] = molecular target: Glyceraldehyde-3-phosphate dehydrogenase (Homo sapiens, UniProt P04406)
Sequence of Glyceraldehyde-3-phosphate dehydrogenase (P04406 whole entry): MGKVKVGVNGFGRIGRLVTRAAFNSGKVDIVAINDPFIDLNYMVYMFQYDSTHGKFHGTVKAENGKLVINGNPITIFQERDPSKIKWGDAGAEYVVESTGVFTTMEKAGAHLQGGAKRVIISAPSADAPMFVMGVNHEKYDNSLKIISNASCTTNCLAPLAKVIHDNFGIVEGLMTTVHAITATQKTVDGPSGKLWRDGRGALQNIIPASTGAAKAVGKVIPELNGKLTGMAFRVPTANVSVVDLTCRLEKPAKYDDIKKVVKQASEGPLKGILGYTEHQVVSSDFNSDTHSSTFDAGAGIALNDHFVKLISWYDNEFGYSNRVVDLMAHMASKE

Bcl-2-related protein A1 [4] = molecular target: T1, Bcl-2-related protein A1 (Mus musculus, UniProt Q07440); assay: small-molecule antagonists of Bfl-1/BH3 interaction – biochemical, TR-FRET, mouse Bfl-1, confirmation (AID 621);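 further: TR-FRET binding of GST-Bfl-1 to FITC-labelled Bid peptide via terbium antibody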
T1 sequence (Q07440 whole entry): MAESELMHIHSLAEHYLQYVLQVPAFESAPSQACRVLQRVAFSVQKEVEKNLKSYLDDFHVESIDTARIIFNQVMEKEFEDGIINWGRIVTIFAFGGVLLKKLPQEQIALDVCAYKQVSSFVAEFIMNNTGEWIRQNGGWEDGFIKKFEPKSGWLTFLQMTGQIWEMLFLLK

Bcl-2-related protein A1 [5] = molecular target: T1, Bcl-2-related protein A1; assay: Bfl-1 binding inhibitors, SAR follow-up, biochemical, fluorescence polarization (AID 1070)
Ephrin type-A receptor 4 = Ephrin type-A receptor 4 (Mus musculus, UniProt Q03137); assay: EphA4 ligand-binding antagonists – biochemical, colorimetric, mouse EphA4, primary screen (AID 689); type: functional
Sequence of Ephrin type-A receptor 4 (Q03137 whole entry): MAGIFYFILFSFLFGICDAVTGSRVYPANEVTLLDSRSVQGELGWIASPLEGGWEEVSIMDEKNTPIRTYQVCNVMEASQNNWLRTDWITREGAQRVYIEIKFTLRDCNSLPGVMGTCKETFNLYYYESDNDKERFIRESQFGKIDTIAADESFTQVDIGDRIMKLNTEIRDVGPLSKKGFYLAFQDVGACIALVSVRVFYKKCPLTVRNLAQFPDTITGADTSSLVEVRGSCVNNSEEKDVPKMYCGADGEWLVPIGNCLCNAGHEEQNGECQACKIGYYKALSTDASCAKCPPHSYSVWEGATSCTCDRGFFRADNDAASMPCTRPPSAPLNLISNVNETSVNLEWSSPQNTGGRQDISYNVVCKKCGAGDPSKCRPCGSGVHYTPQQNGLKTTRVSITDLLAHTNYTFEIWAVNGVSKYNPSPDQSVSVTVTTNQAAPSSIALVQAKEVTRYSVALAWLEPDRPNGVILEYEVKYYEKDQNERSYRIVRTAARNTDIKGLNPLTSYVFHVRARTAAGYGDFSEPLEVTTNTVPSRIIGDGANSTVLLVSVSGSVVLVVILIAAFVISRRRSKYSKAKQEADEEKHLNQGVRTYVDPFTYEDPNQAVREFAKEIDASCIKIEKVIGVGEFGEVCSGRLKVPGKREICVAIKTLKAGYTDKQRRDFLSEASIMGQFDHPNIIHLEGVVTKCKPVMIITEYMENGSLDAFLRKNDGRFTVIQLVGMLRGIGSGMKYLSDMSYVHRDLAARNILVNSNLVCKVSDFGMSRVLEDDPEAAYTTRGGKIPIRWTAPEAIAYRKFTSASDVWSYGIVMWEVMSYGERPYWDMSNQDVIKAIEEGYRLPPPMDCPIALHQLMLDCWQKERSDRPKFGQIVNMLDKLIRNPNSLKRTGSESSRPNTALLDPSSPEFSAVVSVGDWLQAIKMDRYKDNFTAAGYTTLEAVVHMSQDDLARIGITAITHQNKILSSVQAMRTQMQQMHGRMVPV

[6] = molecular target: E3 ubiquitin-protein ligase Mdm2 (Homo sapiens, UniProt Q00987); assay: MDM2-luc reporter signal enhancers, multi-concentration potency testing, MDM2 ubiquitin-protein ligase inhibitor program, whole-cell format, luminescence detection, 384-well microplate (AID 1394); type: functional;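 further: MDM2 E3 inhibitors raise luminescence so EC50 is for signal enhancement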
Sequence of E3 ubiquitin-protein ligase Mdm2 (Q00987 whole entry): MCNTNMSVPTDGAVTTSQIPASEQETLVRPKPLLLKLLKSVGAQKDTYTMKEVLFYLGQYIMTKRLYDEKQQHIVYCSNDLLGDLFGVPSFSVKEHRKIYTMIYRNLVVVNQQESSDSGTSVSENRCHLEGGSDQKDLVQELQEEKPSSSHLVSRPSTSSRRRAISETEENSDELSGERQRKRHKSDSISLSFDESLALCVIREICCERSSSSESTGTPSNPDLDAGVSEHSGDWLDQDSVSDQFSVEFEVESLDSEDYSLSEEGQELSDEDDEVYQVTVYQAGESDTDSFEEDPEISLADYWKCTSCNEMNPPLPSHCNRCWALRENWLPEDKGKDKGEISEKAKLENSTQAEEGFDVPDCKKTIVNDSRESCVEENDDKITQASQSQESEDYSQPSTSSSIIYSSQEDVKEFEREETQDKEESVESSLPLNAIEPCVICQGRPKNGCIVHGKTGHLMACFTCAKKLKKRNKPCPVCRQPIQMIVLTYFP

[7] = reduction of Shn3 3'UTR-driven luciferase in osteoblasts – cell-based, Clone20 osteoblasts, firefly luciferase, cherry-picked, dose response (AID 624132); type: functional;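 further: firefly luciferase luminescence from reporter carrying the Shn3 3'UTR in osteoblasts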
[8] = loss of viability in HepG2 cells – cell-based, CellTiter-Glo, cherry-picked, cytotoxicity control for Shn3 inhibitor project, dose response (AID 624134); type: functional
[9] = non-specific 3'UTR reporter inhibition in Clone20-Shn3RL – cell-based, Renilla luciferase, cherry-picked, counter-screen for Shn3 inhibitor project, dose response (AID 624133); type: functional
[10] = molecular target: Sphingosine 1-phosphate receptor 2 (Homo sapiens, UniProt O95136); assay: Dose Response Cell Based Assay for Antagonists of the S1P2 Receptor. [Related pubchem assays: 856, 736 ]; type: functional
Sequence of Sphingosine 1-phosphate receptor 2 (O95136 whole entry): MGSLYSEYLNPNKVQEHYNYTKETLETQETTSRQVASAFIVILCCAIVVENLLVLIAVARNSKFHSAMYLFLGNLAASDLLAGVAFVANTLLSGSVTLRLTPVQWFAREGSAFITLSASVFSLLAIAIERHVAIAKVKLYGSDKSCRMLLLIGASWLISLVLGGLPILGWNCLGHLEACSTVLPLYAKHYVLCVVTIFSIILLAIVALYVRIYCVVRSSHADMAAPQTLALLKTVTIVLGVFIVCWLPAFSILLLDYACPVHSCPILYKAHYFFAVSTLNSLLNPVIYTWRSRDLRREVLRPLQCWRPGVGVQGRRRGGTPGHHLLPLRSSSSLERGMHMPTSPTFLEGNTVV

[11] = molecular target: T2, Heat shock factor protein 1 (Mus musculus, UniProt P38532); assay: decrease of HSF1-responsive luciferase luminescence – cell-based, NIH3T3, dose retest, confirmation (AID 2382); type: functional;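 further: NIH3T3 fibroblasts with HSF1-driven luciferase reporter stressed by proteasome inhibitor MG132; luminescence from HSF1-driven luciferase expression after 8 hours of MG132 stress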
T2 sequence (P38532 whole entry): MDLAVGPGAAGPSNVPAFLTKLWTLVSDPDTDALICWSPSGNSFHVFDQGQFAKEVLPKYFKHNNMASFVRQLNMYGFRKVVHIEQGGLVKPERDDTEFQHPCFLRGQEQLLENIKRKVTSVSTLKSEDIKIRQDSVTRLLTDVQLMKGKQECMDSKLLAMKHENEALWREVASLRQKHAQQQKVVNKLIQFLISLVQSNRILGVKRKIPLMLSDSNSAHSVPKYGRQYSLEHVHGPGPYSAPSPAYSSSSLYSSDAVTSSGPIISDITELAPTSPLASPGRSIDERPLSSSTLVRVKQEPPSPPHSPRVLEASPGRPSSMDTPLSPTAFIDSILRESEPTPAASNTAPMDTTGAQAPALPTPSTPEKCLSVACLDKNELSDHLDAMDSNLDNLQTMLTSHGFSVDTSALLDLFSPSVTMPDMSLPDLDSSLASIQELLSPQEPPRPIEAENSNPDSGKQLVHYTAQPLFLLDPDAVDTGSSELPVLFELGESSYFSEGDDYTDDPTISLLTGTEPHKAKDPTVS

[12] = HPDE-C7 pancreatic duct cell viability loss – fluorescence, HTS (AID 430); type: functional, cell-based; conditions: Homo sapiens
[13] = viability loss of HPDE-C7K cells – cell-based, fluorescence, HTS, primary screen (AID 431); type: functional; conditions: Homo sapiens
CAAX prenyl protease 2 = molecular target: T3, CAAX prenyl protease 2 (Saccharomyces cerevisiae S288c, UniProt Q03530); type: biochemical
T3 sequence (Q03530 whole entry): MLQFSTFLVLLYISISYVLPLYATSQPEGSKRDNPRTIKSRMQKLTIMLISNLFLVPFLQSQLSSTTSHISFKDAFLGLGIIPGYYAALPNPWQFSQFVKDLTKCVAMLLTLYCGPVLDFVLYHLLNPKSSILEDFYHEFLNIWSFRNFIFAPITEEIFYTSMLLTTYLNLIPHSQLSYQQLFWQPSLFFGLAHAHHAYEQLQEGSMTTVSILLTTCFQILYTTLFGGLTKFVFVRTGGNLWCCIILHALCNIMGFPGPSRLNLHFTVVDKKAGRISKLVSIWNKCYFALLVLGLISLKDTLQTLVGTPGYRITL

[14] = Luminescence Cell-Based Dose Confirmation HTS to Identify Activators of 5'UTR Stem-Loop Driven Alpha-Synuclein mRNA Translation in H4 Neuroglioblastoma Cells. [Related pubchem assays: 1829 (Project Summary), 1814 (Primary HTS)]; type: functional
[15] = Luminescence Cell-Based Dose Response HTS to Identify Activators of Luciferase Translation or Activity in H4 […] Cells. [Related pubchem assays: 1829 (Project Summary), 1814 (Primary HTS)]; type: functional
H4 = assay: Luminescence Cell-Based Dose Response HTS to Identify Activators of 5'UTR Stem-Loop Driven Prion Protein mRNA Translation in H4 Neuroglioblastoma Cells. [Related pubchem assays: 1829 (Project Summary), 1814 (Primary HTS)]; type: functional; conditions: Homo sapiens
[16] = molecular target: Voltage-gated inwardly rectifying potassium channel KCNH2 (Homo sapiens, UniProt Q12809); assay: concentration-dependent hERG rescue from blockers – cell-based, thallium flux, dose response (AID 2121); type: ADME
Sequence of Voltage-gated inwardly rectifying potassium channel KCNH2 (Q12809 whole entry): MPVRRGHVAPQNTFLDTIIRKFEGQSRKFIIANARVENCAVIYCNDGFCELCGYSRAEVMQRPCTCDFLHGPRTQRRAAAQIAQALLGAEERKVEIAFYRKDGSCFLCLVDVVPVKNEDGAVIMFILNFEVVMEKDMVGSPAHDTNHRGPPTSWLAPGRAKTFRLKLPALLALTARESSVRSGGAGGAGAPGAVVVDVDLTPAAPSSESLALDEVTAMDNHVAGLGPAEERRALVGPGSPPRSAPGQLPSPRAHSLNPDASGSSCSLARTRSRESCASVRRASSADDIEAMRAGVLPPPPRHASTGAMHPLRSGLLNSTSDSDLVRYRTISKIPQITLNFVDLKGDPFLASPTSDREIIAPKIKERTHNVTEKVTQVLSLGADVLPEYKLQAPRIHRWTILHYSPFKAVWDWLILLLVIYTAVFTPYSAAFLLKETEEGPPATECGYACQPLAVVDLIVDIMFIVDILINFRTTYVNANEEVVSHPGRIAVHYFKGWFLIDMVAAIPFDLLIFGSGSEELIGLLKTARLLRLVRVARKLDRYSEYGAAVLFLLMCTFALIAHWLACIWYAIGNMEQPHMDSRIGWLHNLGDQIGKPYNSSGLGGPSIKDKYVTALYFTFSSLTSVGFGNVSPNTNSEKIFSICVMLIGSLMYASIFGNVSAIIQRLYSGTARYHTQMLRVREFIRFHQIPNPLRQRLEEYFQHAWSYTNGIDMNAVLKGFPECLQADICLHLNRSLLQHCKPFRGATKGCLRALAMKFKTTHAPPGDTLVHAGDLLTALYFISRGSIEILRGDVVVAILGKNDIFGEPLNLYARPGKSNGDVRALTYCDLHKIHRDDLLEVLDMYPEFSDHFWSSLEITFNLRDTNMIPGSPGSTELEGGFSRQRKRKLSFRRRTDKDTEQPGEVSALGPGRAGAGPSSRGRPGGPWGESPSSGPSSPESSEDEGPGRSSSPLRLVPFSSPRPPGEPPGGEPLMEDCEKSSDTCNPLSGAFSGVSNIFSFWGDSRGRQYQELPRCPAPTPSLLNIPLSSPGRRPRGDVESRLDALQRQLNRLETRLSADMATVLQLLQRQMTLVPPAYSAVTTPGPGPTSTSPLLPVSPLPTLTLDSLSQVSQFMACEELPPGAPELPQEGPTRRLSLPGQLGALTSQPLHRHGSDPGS

[17] = molecular target: Heat shock protein HSP 90-alpha (Homo sapiens, UniProt P07900); type: functional, organism-based
Aminopeptidase N = molecular target: T4, Aminopeptidase N (Plasmodium falciparum FcB1/Columbia, UniProt O96935); assay: malaria alanyl aminopeptidase activity blockers – biochemical, fluorogenic H-Leu-NHMec substrate, 1536-well (AID 1445); design: species or system Plasmodium falciparum 3D7, 3D7
T4 sequence (O96935 whole entry): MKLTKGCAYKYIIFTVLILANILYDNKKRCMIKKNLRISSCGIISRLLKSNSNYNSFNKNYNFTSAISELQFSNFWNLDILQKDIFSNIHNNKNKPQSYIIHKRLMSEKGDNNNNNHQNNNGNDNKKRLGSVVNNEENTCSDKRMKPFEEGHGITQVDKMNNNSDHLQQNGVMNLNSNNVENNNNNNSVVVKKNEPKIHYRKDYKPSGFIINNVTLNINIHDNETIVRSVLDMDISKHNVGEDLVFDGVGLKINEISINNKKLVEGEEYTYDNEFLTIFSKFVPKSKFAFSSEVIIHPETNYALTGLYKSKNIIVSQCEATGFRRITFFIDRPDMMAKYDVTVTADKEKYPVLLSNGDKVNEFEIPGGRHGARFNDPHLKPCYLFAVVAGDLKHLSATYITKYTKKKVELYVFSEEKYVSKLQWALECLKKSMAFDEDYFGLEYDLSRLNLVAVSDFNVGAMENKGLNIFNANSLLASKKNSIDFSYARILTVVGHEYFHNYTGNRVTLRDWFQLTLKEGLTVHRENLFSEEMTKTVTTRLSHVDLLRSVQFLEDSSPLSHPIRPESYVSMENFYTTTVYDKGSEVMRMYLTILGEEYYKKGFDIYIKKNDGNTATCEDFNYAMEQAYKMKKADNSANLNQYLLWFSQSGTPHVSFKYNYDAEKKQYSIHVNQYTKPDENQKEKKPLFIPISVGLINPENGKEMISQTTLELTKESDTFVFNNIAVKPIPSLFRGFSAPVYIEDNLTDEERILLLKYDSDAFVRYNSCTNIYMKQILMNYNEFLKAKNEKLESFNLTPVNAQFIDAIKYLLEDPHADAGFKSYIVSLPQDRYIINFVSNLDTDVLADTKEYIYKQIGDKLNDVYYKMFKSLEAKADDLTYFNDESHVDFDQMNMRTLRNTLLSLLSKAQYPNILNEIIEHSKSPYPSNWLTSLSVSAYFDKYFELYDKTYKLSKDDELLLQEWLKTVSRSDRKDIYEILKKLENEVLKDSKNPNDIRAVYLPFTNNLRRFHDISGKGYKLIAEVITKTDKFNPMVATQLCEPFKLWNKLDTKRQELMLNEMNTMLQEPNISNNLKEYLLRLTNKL

[18] = tested on: Streptococcus sp. 'group A'; assay: Streptococcus pyogenes SK(-)GAS viability under kanamycin – luminescence, BacTiterGlo, confirmation, counter-screen for streptokinase expression inhibitor project, dose response (AID 1900); type: functional, organism-based
Streptokinase A = molecular target: T5, Streptokinase A (Streptococcus pyogenes serotype M1, UniProt P10520); assay: viability-normalized secreted streptokinase activity reduction – plasminogen activation absorbance, OD405, dose response (AID 1914); type: functional, Streptococcus pyogenes M1 GAS;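 further: secreted streptokinase activity via plasminogen activation per viability signal from cell pellet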
T5 sequence (P10520 whole entry): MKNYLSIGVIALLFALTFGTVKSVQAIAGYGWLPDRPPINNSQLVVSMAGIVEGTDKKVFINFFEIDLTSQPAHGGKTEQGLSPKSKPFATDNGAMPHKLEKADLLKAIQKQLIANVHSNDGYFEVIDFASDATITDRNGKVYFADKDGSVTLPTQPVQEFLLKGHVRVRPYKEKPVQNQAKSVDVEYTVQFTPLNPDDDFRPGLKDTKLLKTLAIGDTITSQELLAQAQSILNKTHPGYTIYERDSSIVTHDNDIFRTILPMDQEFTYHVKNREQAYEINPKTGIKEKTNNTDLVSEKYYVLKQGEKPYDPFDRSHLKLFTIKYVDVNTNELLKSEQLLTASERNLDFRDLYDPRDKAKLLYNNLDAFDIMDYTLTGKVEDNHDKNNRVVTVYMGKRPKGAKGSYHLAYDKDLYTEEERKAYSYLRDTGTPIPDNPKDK

[19] = molecular target: Bifunctional protein GlmU (Mycobacterium tuberculosis, UniProt P9WMN3); assay: Inhibitors of Mycobacterial Glucosamine-1-phosphate acetyl transferase (GlmU). Secondary screen.; design: species or system Mycobacterium tuberculosis H37Rv
Sequence of Bifunctional protein GlmU (P9WMN3 whole entry): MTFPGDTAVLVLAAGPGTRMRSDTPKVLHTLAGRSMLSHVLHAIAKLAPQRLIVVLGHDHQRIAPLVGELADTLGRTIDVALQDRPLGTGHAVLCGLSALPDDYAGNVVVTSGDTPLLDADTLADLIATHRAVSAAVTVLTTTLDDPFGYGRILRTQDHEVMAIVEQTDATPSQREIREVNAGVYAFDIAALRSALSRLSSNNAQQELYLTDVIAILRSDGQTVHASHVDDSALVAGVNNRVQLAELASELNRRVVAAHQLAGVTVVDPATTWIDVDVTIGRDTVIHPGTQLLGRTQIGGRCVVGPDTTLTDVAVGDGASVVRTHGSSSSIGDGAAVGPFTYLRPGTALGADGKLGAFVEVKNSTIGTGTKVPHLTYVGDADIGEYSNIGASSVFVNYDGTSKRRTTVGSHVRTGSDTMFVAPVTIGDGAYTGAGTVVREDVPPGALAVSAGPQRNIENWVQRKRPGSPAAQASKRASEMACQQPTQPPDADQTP

[20] = molecular target: Induced myeloid leukemia cell differentiation protein Mcl-1 (Homo sapiens, UniProt Q07820); type: functional
Sequence of Induced myeloid leukemia cell differentiation protein Mcl-1 (Q07820 whole entry): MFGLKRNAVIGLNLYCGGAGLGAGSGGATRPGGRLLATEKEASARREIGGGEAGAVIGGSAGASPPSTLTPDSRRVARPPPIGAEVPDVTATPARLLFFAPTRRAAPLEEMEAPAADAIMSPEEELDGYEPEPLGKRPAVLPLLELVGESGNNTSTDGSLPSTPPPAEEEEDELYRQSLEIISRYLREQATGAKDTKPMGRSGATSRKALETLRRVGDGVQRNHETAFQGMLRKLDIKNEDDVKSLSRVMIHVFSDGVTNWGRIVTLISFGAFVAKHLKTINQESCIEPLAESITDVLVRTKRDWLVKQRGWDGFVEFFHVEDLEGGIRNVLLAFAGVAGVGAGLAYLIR

Streptococcus = assay: GAS UMAA2166 growth inhibition – luminescence, BacTiterGlo, counter-screen for streptokinase expression inhibitor project, dose response (AID 1915); type: functional, organism-based;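 further: potency for reduction of bacterial viability or growth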
[21] = molecular target: T6, Probable nicotinate-nucleotide adenylyltransferase (Staphylococcus aureus (strain N315), UniProt P65502); type: functional, Staphylococcus aureus subsp. aureus N315;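 on IC50 Mean: confirmatory dose-response retesting of NadD inhibitor hits first found in an ultra-high-throughput screen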
T6 sequence (P65502 whole entry): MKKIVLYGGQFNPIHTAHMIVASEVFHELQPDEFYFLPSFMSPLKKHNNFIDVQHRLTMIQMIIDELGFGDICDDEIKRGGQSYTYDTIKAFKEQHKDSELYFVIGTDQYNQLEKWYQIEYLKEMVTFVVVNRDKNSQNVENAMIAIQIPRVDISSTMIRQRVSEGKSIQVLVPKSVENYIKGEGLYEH

[22] = molecular target: T6, Probable nicotinate-nucleotide adenylyltransferase; type: functional, Staphylococcus aureus subsp. aureus N315; conditions: read-out: IC50_Mean

## COc1ccc(C(=O)OC2CCN(C)CC2)cc1
[1]
  EC50: < 0.1 µM (active)
[2]
  EC50: > 60 µM (not active)
cells
  EC50: 0.077 µM (active)

## NCCN1CCN(C2=C(Cl)C(=O)N(c3ccc(Cl)c(Cl)c3)C2=O)CC1
[3]
  IC50: > 100 µM (not active)
Bcl-2-related protein A1 [4]
  IC50: > 100 µM (not active)
Bcl-2-related protein A1 [5]
  IC50: > 100 µM (not active)

## CC1CCCN(c2nc3ccccc3nc2C(C#N)C(=O)OC2CCCCC2)C1 (stereo not given)
Ephrin type-A receptor 4
  IC50: 9.81 µM (active)

## Cc1cc(C)nc(S/C=C/C(=O)c2ccccc2)n1
[6]
  EC50: 1.32 µM (active)
[7]
  AC50: 1.72 µM (active)
[8]
  AC50: 42.4 µM (active)
[9]
  AC50: 9.3 µM (active)

## CCCC(=O)N1CCN(c2ccc(NC(=O)c3cc4ccccc4o3)cc2Cl)CC1
[10]
  IC50: 4.67 µM (active)
[11]
  EC50: 7.51 µM (active)
[12]
  EC50: 7.87 µM (active)
[13]
  EC50: 7.44 µM (active)
CAAX prenyl protease 2
  AC50: 11.5 µM (active)
[7]
  AC50: 4.1 µM (active)
[8]
  AC50: 7.37 µM (active)
[9]
  AC50: 8.96 µM (active)

## O=C1C(Cl)=C(N2CCN(c3ccccc3F)CC2)C(=O)N1c1ccc(Cl)c(Cl)c1
[3]
  IC50: > 100 µM (not active)
Bcl-2-related protein A1 [4]
  IC50: > 100 µM (not active)
Bcl-2-related protein A1 [5]
  IC50: > 100 µM (not active)

## COc1cccc([C@@H]2Oc3ccc(OC)cc3C(=O)[C@H]2OC(=O)NCc2ccc3c(c2)OCO3)c1
[14]
  EC50: 16.3 µM (active)
[15]
  EC50: 16.6 µM (active)
H4
  EC50: 46.4 µM (active)
[16]
  EC50: 4.06 µM (active)

## COc1ccc(N2CCN(C(CNC(=O)Oc3ccccc3)c3cccnc3)CC2)cc1 (stereo not given)
[1]
  EC50: < 0.1 µM (active)
[2]
  EC50: > 30 µM (not active)
cells
  EC50: 0.087 µM (active)

## O=C(CCSc1ccc(Br)cc1)c1ccc(O)cc1
[16]
  EC50: 1.17 µM (active)
[17]
  AC50: 1.81 µM (active)

## COc1ccc(C2C(C(=O)N3CCCCC3)CCC(=O)N2c2cc(OC)c(OC)c(OC)c2)cc1 (stereo not given)
[6]
  EC50: 47.1 µM (not active)

## O=C(N/N=C/c1ccc(-c2ccc(Cl)c(C(=O)O)c2)o1)c1cc2c(ccc3ccccc32)o1
Aminopeptidase N
  IC50: 9.45 µM (active)
[18]
  EC50: 3.13 µM (active)
Streptokinase A
  EC50: > 150 µM (not active)
[19]
  IC50: 58.8 µM (active)
[20]
  IC50: 1.55 µM (active)
Streptococcus
  EC50: 66.6 µM (inconclusive)
[21]
  IC50: 3.91 µM (active)
[22]
  IC50: 10.7 µM (active)
